Laboratory results: patent US4460594A, “Bicyclo-hetero-alkylene-1-piperidines, pharmaceutical compositions thereof and methods of use thereof” (Beecham Group p.l.c., priority 1981, dated 1984)
Counter-ions that a name gives are not always drawn.

Columns and labels:
[1] = tested on: presynaptic dopaminergic autoreceptors; experiment: Inhibition of Spontaneous Climbing in the Mouse; type: in vivo; conditions: 10 minute period commencing 3 minutes after administration; for % Inhibition of Spontaneous Climbing Behaviour in Mice: at 0.2 mg/kg subcutaneous; for ID50, Inhibition of Spontaneous Climbing Behaviour in Mice: subcutaneous
Method: It is believed that this inhibitory effect is mediated by stimultion of presynaptic dopaminergic autoreceptors, i.e. receptors whose stimulation results in inhibition of dopamine synthesis and electrical activity of dopamine neurones. Spontaneous climbing behavior was assessed by the method of M. P. Martres et al., Brain Res. 136, 319 (1977).
This involves the monitoring of the frequency of climbing behaviour of mice in inverted food hoppers over a 10 minute period commencing 3 minutes after subcutaneous administration of compound.
A climb is defined as the mouse having all four feet off the ground. Experiments are carried out with a minimum of 5 groups of 10 mice, one group acting as control. […] The ID50 value is calculated using the Litchfield and Wilcoxon technique and is defined as the concentration of drug which would be expected to reduce spontaneous climbing of a group of mice by 50%.

dopamine receptor [2] = target: T1, dopamine receptor (Rattus norvegicus, UniProt P61169); experiment: displacement of 3H-Spiperone, dopamine receptor labelling; type: binding
T1 construct: from tissue
From the text: (§1) α-Adrenoceptor and dopamine receptors were labelled using methods similar to those previously reported [see S. Lazareno and S. R. Nahorski, Communication presented to Brit. Pharm. Soc., Bradford, 74 (1981), and P. Greengrass and R. Bremer, Eur. J. Pharmacol 55, 323 (1979)].

α-Adrenoceptor [3] = experiment: displacement of 3H-Prazosin, α-adrenoceptor labelling; type: binding
From the text: as §1

α-Adrenoceptor [4] = experiment: displacement of 3H-Yohimbine, α-adrenoceptor labelling; type: binding
From the text: as §1

dopamine receptor [5] = target: T1, dopamine receptor; experiment: displacement of 3H-Domperidone, dopamine receptor labelling; type: binding
From the text: as §1

[6] = 3H-Spiperone, read-out: INHIBITION CONSTANT Ki, 3H-Spiperone
[7] = read-out: INHIBITION CONSTANT Ki, 3H-Prazosin
[8] = read-out: INHIBITION CONSTANT Ki, 3H-Yohimbine
[9] = 3H-Domperidone, read-out: INHIBITION CONSTANT Ki, 3H-Domperidone

T1 sequence (P61169 whole entry): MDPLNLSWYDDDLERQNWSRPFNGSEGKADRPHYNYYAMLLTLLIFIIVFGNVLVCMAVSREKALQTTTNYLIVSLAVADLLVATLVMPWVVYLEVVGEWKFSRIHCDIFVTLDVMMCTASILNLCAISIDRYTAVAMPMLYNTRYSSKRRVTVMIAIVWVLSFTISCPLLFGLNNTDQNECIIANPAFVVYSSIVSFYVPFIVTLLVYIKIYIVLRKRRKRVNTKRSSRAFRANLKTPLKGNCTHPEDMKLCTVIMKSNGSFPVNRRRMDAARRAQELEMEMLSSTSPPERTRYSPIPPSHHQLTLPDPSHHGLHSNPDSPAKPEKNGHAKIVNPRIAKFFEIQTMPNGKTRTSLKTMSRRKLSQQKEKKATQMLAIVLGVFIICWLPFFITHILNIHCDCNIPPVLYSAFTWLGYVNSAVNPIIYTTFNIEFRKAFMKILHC

`Oc1cccc(C2CCCN(CCc3c[nH]c4ccccc34)C2)c1` (stereo not drawn) [Compound 34, 3-(1-[2-(1H-3-Indolyl)ethyl]-3-piperidyl)phenol] was tested, and the “% Inhibition of Spontaneous Climbing Behaviour in Mice” value (shortened to “% Inhibition”) [1] was 52%.
In the case of `Oc1cccc(C2CCCN(CC3Cc4ccccc4O3)C2)c1` (stereo not drawn) [Compound 30, 3-(1-[(2,3-Dihydro-2-benzofuranyl)methyl]-3-piperidinylphenol) hydrobromide hydrate], the Ki (dopamine receptor [2]; [6]) is reported as 200 nM, the Ki (α-Adrenoceptor [3]; [7]) is reported as 210 nM and the Ki (α-Adrenoceptor [4]; [8]) is reported as 13 nM. The “ID50, Inhibition of Spontaneous Climbing Behaviour in Mice” value (from here on “ID50, Inhibition”) [1] was 0.09 mg/kg and the Ki (dopamine receptor [5]; [9]) was 48 nM.
In the case of `Oc1cccc(C2CCCN(Cc3coc4ccccc34)C2)c1` (stereo not drawn) [Compound 12, 3-[1-(3-Benzofurylmethyl)-3-piperidyl]phenol hydrobromide hemihydrate], the “% Inhibition” value [1] is reported as 23%.
Work on `NC1CCc2cc(O)c(O)cc2C1` (stereo not drawn) [A-6,7-DTN] yielded a Ki (dopamine receptor [2]) of 130 nM, a Ki (α-Adrenoceptor [3]; read-out: […] Ki, 3H-Prazosin) of 10000 nM and a Ki (α-Adrenoceptor [4]; read-out: […] Ki, 3H-Yohimbine) of 560 nM. It also gave a Ki (dopamine receptor [5]) of 12 nM.
In the case of `Br.Oc1cccc(C2CCCN(Cc3cc4ccccc4o3)C2)c1` (stereo not drawn) [Compound 14, 3-[1-(2-benzofurylmethyl)-3-piperidyl]phenol hydrobromide], the “ID50, Inhibition” value [1] is reported as 1.7 mg/kg.
In the case of `Br.Oc1cccc(C2CCCN(Cc3c(Br)oc4ccccc34)C2)c1` (stereo not drawn) [Compound 11, 3-[1-(2-bromo-3-benzofurylmethyl)-3-piperidyl]phenol hydrobromide], the “% Inhibition” value [1] is reported as 24%.
`Oc1cccc(C2CCCN(CCc3cc4ccccc4o3)C2)c1` (stereo not drawn) [Compound 13, 3-(1-[2-(2-Benzofuryl)ethyl]-3-piperidyl)phenol hydrobromide hemihydrate] was tested, and the “ID50, Inhibition” value [1] was 0.29 mg/kg.
With `NC1CCc2c(ccc(O)c2O)C1` (stereo not drawn) [A-5,6-DTN] the Ki (dopamine receptor [2]; [6]) was 520 nM, the Ki (α-Adrenoceptor [3]; [7]) was 16000 nM and the Ki (α-Adrenoceptor [4]; [8]) was 690 nM. For the same compound, the Ki (dopamine receptor [5]; [9]) was 240 nM.
